Measurements as given in patent publication US8173133B2, “Acyl pseudodipeptides which carry a functionalized auxiliary arm” (OM Pharma, priority 1999, dated 2012).

Legend:
[1] = test system: human peripheral blood mononuclear cells; assay: inhibition of E. coli LPS-induced α TNF production in human peripheral blood mononuclear cells; assay type: cell-based; details: product 10 μg/ml; for 50% inhibition LPS: LPS concentration at which α TNF production is 50% of control; for max. Inhibition LPS: LPS concentration corresponding to maximum inhibition
Procedure: Mononuclear cells of peripheral blood are recovered from buffy coats of 6 healthy donors. Such buffy coat cells are resuspended and mononuclear cells are isolated by centrifugation on a Ficoll-Paque gradient (Amersham Pharmacia). Purified mononuclear cells are resuspended into RPMI-1640 medium supplemented with 10% FCS, antibiotics, mercaptoethanol and L-glutamine. Cell concentration is adjusted to 2×10^6 viable cells/ml.
Product mediated Inhibition is determined by preincubating those products with mononuclear cells, and adding, 1 hour later, serially diluted solutions of LPS capable of inducing α TFN production. […] E. coli LPS is serially diluted (10-fold dilution) to be in the range of 1 to 0.00001 μg/ml
50 μl of 10 μg/ml dilute product solutions in RPMI 1640 medium are dispensed into a microtiter plate. Each assay (10 μg/ml product concentration+dilute E. coli LPS) is run in triplicates and each microtiter plate includes a negative control comprised of plain medium. LPS-induced α TNF production (without inhibitor) is determined by adding E. coli LPS dilutions to RPMI medium.
100 μl of the cell suspension are added to each well containing dilutions of either product or control. Cells are incubated with the products for 1 hour in an incubator at 37° C., under 5% CO2 and a moisture saturated atmosphere.
At the end of the pre-incubation period, 50 μl of serially diluted solutions of E. coli LPS are added. Incubation of mononuclear cells with the product and LPS is extended for 18 hours. At the end of the cell activation period, the microtiter plates are centrifuged, and the supernatants are pooled and frozen at −80° C. as aliquots until time of ELISA assay.
Concentration of αTNF secreted by mononuclear cells is determined by chemiluminescent ELISA (QuantiGlo #QTAOO R&D kit). 4-fold dilutions of supernatant fluid are dispensed into each well of the microtiter plate to which anti-human αTNF antibodies are bound. The microtiter plate is incubated for 4 hours at room temperature. After washing, peroxidase-conjugated anti-human αTNF antibody is added. Following a 2 hour incubation period and a thorough washing, a chemiluminescent substrate is added and chemilunescence is read after 20 minutes. αTNF content in the supernatant fluid is determined with respect to a standard curve covering the 7000 to 0.7 pg/ml range.
Inhibition is characterized by the E. coli LPS concentration which elicits 50% production of α TNF during co-incubation in comparison to a control including only RPMI. This concentration increases as product inhibition activity becomes stronger. Knowing inhibition values of α TNF production, this concentration is given by calculating 100-(αTNF production induced by product and LPS)/(αTNF production induced by LPS alone)*100. From these inhibition data, concentration is determined by linear regression along the line segment which joins 2 LPS dilutions giving approx. 50% inhibition.
Product ability to inhibit α TNF production in mononuclear cells in response to LPS is further characterized by maximum inhibition. […] Results are calculated from a representative experience using all products.

[2] = test system: murine predendritic cells (CD-DM); assay: maturation of murine predendritic cells into dendritic cells (flow cytometry of surface markers); assay type: cell-based, C57BI/6 mice; details: for CD40 MFI: 48 hour
Procedure: The marrow was aspirated from the femur and tibia bones of (C57BI/6, 6 to 8 week-old) mice. The marrow suspension was screened through a 70 μm cell sieve in order to obtain a single cell suspension. Marrow cells were resuspended into Isocove's modified Dulbecco medium (IMDM) supplemented with 10% of heat inactivated foetal calf serum (iFCS) and antibiotics. Cells were incubated overnight at 37° C., under CO2 and a moisture saturated atmosphere, inside 6-well microtiter plates. Next day (day 0), non adherent cells were collected and washed. Viable cells were counted by trypan blue dye exclusion test. Cell concentration was adjusted to 2×10^5 cells/ml in IMDM containing […] and 20 ng/ml of murine recombinant IL-4 (rmIL-4) and plates were further incubated. On the 3rd day, there were added freshly prepared mGM-CSF and rmIL-4 at a concentration of 10 ng/ml. On the 6th day, non adherent cells were collected, washed and counted by trypan blue dye exclusion. Cell concentration was adjusted to 2×10^5 cells/ml in IMDM containing 10 ng/ml of rmGM-CSF and rmIL-4, and plates were further incubated. On the 8th day, non adherent cells made up of both mature and immature dendritic cells (CD-DM) were collected and used in product co-incubation experiments.
After a 48 hour incubation period, cells were collected and stored for flow cytometry analysis Flow cytometry analysis CD-DM were washed with PBS containing 2% iFCS and 0.01% sodium azide (FACS buffer). Then, cells were incubated on ice for 30 minutes with optimal concentrations of anti-CD86 antibody; anti-CD40 antibody, FITC conjugated anti-MCHII antibody, and […]. Then, cells were washed 3 times. Labeling of anti-CD86 and anti-CD40 antibodies was performed by incubating cells on ice for 30 minutes with peroxidase-conjugated donkey anti-rat immunoglobulins. Following incubation, cells were washed and resuspended into FACS medium. Fluorescence was measured with the aid of FACScan® flow cytometry. 15000 pulse events were analyzed per sample. Cells which had been incubated with the conjugate alone were used as a negative control.

[3] = cytotoxicity on virus-free MT-4 cells (MTT); assay type: cell-based; details: human, MT-4 cells (virus-free)
Procedure: Cytotoxicity of a given product is assessed in the same manner in the lower portion of the plate where the test is conducted by incubating serially diluted products over virus-free cells, to thereby determine the toxic effect of products on cells. The result is given as CC50, i.e. the concentration at which 50% of cells are dead due to product toxicity. Selectivity (selectivity index, SI) of a given product is defined as a CC50/IC50 ratio. This parameter is of great importance since the selectivity index of a fairly efficient product is high.

| Compound | max. Inhibition [1] | 50% inhibition LPS [1] | max. Inhibition LPS [1] | C80 % cells ([2]; 0.1 μg/ml) | C80 MFI ([2]; 0.1 μg/ml) | CD40 % cells ([2]; 0.1 μg/ml) | CD86 % cells ([2]; 0.1 μg/ml) | CD86 MFI ([2]; 0.1 μg/ml) | MHCII % cells ([2]; 0.1 μg/ml) | MHCII MFI ([2]; 0.1 μg/ml) | CD40 MFI ([2]; 0.1 μg/ml) | C80 % cells ([2]; 1 μg/ml) | C80 MFI ([2]; 1 μg/ml) | CD40 % cells ([2]; 1 μg/ml) | CD86 % cells ([2]; 1 μg/ml) | CD86 MFI ([2]; 1 μg/ml) | MHCII % cells ([2]; 1 μg/ml) | MHCII MFI ([2]; 1 μg/ml) | CD40 MFI ([2]; 1 μg/ml) | C80 % cells ([2]; 10 μg/ml) | further results |
| --- | --- | --- | --- | --- | --- | --- | --- | --- | --- | --- | --- | --- | --- | --- | --- | --- | --- | --- | --- | --- | --- |
| CCCCCCCCCCCC(=O)O[C@H](CCCCCCCCCCC)CC(=O)N[C@H](CC(=O)O)C(=O)NCCC[C@H](COC(=O)CCCCC(O)CO)NC(=O)C[C@H](O)CCCCCCCCCCC (stereo partly drawn) [OM-197-MC-FV5, N—[(R)-3-dodecanoyloxytetradecanoylamino]-D-aspartic acid, α-N-{(4R)-5-hydroxy-4-[(R)-3-hydroxytetra-decanoylamino]-pentyl}amide 5-O-(6,7-dihydroxyheptanoate)] | 100% | >1 µg/mL | 0.016 µg/mL | 42% | 66 | 33% | 37% | 3437 | 40% | 1689 | 442 | 45% | 84 | 44% | 43% | 3888 | 43% | 1691 | 517 | 48% | C80 MFI ([2]; 10 μg/ml): 97; CD40 % cells ([2]; 10 μg/ml): 54%; CD86 % cells ([2]; 10 μg/ml): 51%; CD86 MFI ([2]; 10 μg/ml): 4097; MHCII % cells ([2]; 10 μg/ml): 48%; MHCII MFI ([2]; 10 μg/ml): 1681; CD40 MFI ([2]; 10 μg/ml): 630 |
| CCCCCCCCCCCC(=O)O[C@H](CCCCCCCCCCC)CC(=O)N[C@H](CC(=O)O)C(=O)NCCC[C@H](COC(=O)CCCCCNC(=O)CCC(=O)OC[C@@H]1C=C[C@H](n2cc(C)c(=O)[nH]c2=O)O1)NC(=O)C[C@H](O)CCCCCCCCCCC [OM-197-MC-AC-Succ-d4T] | 100% | 0.64 µg/mL | 0.00016 µg/mL |  |  |  |  |  |  |  |  |  |  |  |  |  |  |  |  |  | CC50 [3]: ~97 µM |
| CCCCCCCCCCCC(=O)O[C@H](CCCCCCCCCCC)CC(=O)N[C@H](CC(=O)O)C(=O)NCCC[C@H](COC(=O)CCCCCNC(=O)CCC(=O)OC[C@H]1O[C@@H](n2cc(C)c(=O)[nH]c2=O)C[C@@H]1N=[N+]=[N-])NC(=O)C[C@H](O)CCCCCCCCCCC [OM-197-MC-AC-Succ-AZT] | 100% | 0.45 µg/mL | 0.0005 µg/mL |  |  |  |  |  |  |  |  |  |  |  |  |  |  |  |  |  | CC50 [3]: > 94 µM |
| CCCCCCCCCCCC(=O)O[C@H](CCCCCCCCCCC)CC(=O)N[C@H](CC(=O)O)C(=O)NCCC[C@H](COC(=O)CCCCCN)NC(=O)C[C@H](O)CCCCCCCCCCC [OM-197-MC-AC, N—[(R)-3-dodecanoyloxytetradecanoyl]-D-aspartic acid, α-N-{(4R)-5-(6-aminohexanoyloxy)-4-[(R)-3-hydroxytetradecanoylamino]pentyl}amide] | 100% | 0.88 µg/mL | 0.00003 µg/mL | 41% | 66 | 34% | 37% | 3504 | 38% | 1597 | 446 | 47% | 73 | 48% | 45% | 3791 | 45% | 1607 | 493 | 53% | C80 MFI ([2]; 10 μg/ml): 97; CD40 % cells ([2]; 10 μg/ml): 55%; CD86 % cells ([2]; 10 μg/ml): 52%; CD86 MFI ([2]; 10 μg/ml): 4162; MHCII % cells ([2]; 10 μg/ml): 49%; MHCII MFI ([2]; 10 μg/ml): 1622; CD40 MFI ([2]; 10 μg/ml): 605 |
| CCCCCCCCCCCC(=O)O[C@H](CCCCCCCCCCC)CC(=O)N[C@H](CC(=O)O)C(=O)NCCC[C@H](COC(=O)CCC(=O)O)NC(=O)C[C@H](O)CCCCCCCCCCC [OM-197-MC-Succ] | 100% | 1 µg/mL | 0.018 µg/mL |  |  |  |  |  |  |  |  |  |  |  |  |  |  |  |  |  |  |
